Test results published in US20240109917A1 (ACTELION PHARMACEUTICALS LTD, priority 2020, published 2024).

What was measured:
[1] = molecular target: Tb-labeled inactive PDGFRβ (Homo sapiens (Human), UniProt P09619); assay: PDGFRβ LanthaScreen Assay; assay type: binding; conditions: read-out: PDGFR Lantha IC50
[2] = molecular target: His6-TEV-PDGFRβ (557-1016) (Homo sapiens (Human), UniProt P09619); assay: PDGFRβ HTRF Assay; assay type: biochemical; conditions: read-out: PDGFR HTRF IC50
Summary of the method: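 Human PDGFRβ (557-1016) pre-incubated with compound for 30 min at RT in pH 7.5 HEPES/MgCl2/EGTA/Brij-35/DTT buffer. Reaction started with ATP and TK-biotin peptide, run 3 h at RT, then quenched with EDTA-containing Eu-cryptate antibody/streptavidin-XL665. HTRF 665/620 nm ratio read after 60 min; percent inhibition relative to DMSO and 10 μM imatinib controls.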

Sequence of Tb-labeled inactive PDGFRβ (P09619 33-1106): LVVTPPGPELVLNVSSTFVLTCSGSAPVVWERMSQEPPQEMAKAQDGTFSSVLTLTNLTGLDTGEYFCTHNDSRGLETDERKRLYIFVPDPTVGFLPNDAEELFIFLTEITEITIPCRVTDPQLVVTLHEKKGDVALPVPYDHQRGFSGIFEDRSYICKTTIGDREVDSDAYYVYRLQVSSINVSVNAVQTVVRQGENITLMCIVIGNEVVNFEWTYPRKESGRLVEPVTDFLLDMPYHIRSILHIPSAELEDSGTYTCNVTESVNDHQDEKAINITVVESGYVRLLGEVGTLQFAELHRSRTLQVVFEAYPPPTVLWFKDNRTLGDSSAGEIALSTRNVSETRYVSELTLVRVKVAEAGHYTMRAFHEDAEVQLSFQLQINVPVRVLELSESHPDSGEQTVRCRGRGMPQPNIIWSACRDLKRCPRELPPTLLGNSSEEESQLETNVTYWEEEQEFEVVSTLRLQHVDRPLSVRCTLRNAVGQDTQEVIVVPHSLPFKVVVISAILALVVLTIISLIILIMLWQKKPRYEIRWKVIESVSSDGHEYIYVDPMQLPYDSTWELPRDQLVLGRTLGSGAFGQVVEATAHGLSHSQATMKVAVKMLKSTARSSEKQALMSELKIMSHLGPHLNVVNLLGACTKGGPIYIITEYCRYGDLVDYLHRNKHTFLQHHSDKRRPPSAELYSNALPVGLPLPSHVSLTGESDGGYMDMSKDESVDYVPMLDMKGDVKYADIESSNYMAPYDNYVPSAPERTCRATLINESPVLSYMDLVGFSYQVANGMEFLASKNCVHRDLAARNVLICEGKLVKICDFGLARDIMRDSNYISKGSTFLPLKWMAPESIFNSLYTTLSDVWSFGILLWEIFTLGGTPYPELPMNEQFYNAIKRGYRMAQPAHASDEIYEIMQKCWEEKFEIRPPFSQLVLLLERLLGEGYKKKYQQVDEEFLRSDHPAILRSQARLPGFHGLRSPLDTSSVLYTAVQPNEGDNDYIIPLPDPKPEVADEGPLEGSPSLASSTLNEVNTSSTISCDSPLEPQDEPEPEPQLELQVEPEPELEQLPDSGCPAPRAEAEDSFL
Sequence of His6-TEV-PDGFRβ (557-1016) (P09619 557-1016): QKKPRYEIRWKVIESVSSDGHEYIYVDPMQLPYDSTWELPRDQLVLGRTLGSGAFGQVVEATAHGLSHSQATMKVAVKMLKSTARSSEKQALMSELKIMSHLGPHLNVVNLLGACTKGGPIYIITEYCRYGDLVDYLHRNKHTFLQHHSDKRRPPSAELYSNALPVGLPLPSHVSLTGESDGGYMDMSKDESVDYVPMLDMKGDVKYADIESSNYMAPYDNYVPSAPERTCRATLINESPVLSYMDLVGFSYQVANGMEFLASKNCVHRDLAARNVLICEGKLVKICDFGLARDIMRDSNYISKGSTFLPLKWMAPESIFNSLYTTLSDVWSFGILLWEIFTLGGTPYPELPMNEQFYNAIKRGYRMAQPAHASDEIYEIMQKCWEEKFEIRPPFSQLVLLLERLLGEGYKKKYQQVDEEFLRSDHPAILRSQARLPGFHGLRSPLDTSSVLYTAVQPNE

SMILES | IC50 [1] [nM] | IC50 [2] [nM]
Cc1ncc(NC(=O)CN2CC(C)(C)C2)cc1NC(=O)c1cnn2cc(-c3c(C)nn(C4COC4)c3C)sc12 [Example 425, 2-(3,5-dimethyl-1-(oxetan-3-yl)-1H-pyrazol-4-yl)-N-(5-(2-(3,3-dimethylazetidin-1-yl)acetamido)-2-methylpyridin-3-yl)pyrazolo[5,1-b]thiazole-7-carboxamide] | 6.8 | 0.7
Cc1ncc(NC(=O)CN2CC(C)(C)C2)cc1NC(=O)c1cnn2cc(-c3cn(C)nc3C)sc12 [Example 430, 2-(1,3-Dimethyl-1H-pyrazol-4-yl)-N-(5-(2-(3,3-dimethylazetidin-1-yl)acetamido)-2-methylpyridin-3-yl)pyrazolo[5,1-b]thiazole-7-carboxamide] | 1.8 | 0.2
Cc1ncc(NC(=O)CN2CCC(C)C2)cc1NC(=O)c1cnn2cc(-c3cn(C)nc3C)sc12 (centres unmarked) [Example 446, 2-(1,3-Dimethyl-1H-pyrazol-4-yl)-N-(2-methyl-5-(2-(3-methylpyrrolidin-1-yl)acetamido)pyridin-3-yl)pyrazolo[5,1-b]thiazole-7-carboxamide] | 3.5 | 0.3
Cc1ncc(NC(=O)CN2CCC23CCC3)cc1NC(=O)c1cnn2cc(-c3cnn4c3OCCC4)sc12 [Example 408, N-(5-(2-(1-azaspiro[3.3]heptan-1-yl)acetamido)-2-methylpyridin-3-yl)-2-(6,7-dihydro-5H-pyrazolo[5,1-b][1,3]oxazin-3-yl)pyrazolo[5,1-b]thiazole-7-carboxamide] | 1.8 | 0.2
Cc1ncc(C(=O)NCCN2CC3CCC2CC3)cc1NC(=O)c1cnn2cc(-c3cnn4c3OCCC4)sc12 [Example 477, N-(5-((2-(2-azabicyclo[2.2.2]octan-2-yl)ethyl)carbamoyl)-2-methylpyridin-3-yl)-2-(6,7-dihydro-5H-pyrazolo[5,1-b][1,3]oxazin-3-yl)pyrazolo[5,1-b]thiazole-7-carboxamide] | 2.3 | 0.3
Cc1ncc(NC(=O)CN2CCCC2(C)C)cc1NC(=O)c1cnn2cc(-c3cnn4c3COCC4)sc12 [Example 458, 2-(6,7-dihydro-4H-pyrazolo[5,1-c][1,4]oxazin-3-yl)-N-(5-(2-(2,2-dimethylpyrrolidin-1-yl)acetamido)-2-methylpyridin-3-yl)pyrazolo[5,1-b]thiazole-7-carboxamide] | 1.7 | 0.3
Cc1ncc(C(=O)NCCN2CCCC23CCC3)cc1NC(=O)c1cnn2cc(-c3cnn4c3COCC4)sc12 [Example 472, N-(5-((2-(5-azaspiro[3.4]octan-5-yl)ethyl)carbamoyl)-2-methylpyridin-3-yl)-2-(6,7-dihydro-4H-pyrazolo[5,1-c][1,4]oxazin-3-yl)pyrazolo[5,1-b]thiazole-7-carboxamide] | 2.8 | 0.4
Cc1ncc(NC(=O)CNC2CCC2)cc1NC(=O)c1cnn2cc(-c3cnn4c3CCC4)sc12 [Example 471, N-(5-(2-(cyclobutylamino)acetamido)-2-methylpyridin-3-yl)-2-(5,6-dihydro-4H-pyrrolo[1,2-b]pyrazol-3-yl)pyrazolo[5,1-b]thiazole-7-carboxamide] | 1 | 0.1
COCCn1cc(-c2cn3ncc(C(=O)Nc4cc(NC(=O)C[C@@H]5CCN(C(C)C)C5)cnc4C)c3s2)cn1 [Example 466, (S)—N-(5-(2-(1-isopropylpyrrolidin-3-yl)acetamido)-2-methylpyridin-3-yl)-2-(1-(2-methoxyethyl)-1H-pyrazol-4-yl)pyrazolo[5,1-b]thiazole-7-carboxamide] | 261 | 9
COC1CN(CC(=O)Nc2cnc(C)c(NC(=O)c3cnn4cc(-c5cn(C)nc5C)sc34)c2)C1 [Example 441, 2-(1,3-Dimethyl-1H-pyrazol-4-yl)-N-(5-(2-(3-methoxyazetidin-1-yl)acetamido)-2-methylpyridin-3-yl)pyrazolo[5,1-b]thiazole-7-carboxamide] | 19.7 | 0.7
Cc1ncc(NC(=O)CN2CCC[C@H]2C)cc1NC(=O)c1cnn2cc(-c3nn(C)nc3C)sc12 [Example 443, (R)-2-(2,5-dimethyl-2H-1,2,3-triazol-4-yl)-N-(2-methyl-5-(2-(2-methylpyrrolidin-1-yl)acetamido)pyridin-3-yl)pyrazolo[5,1-b]thiazole-7-carboxamide] | 4.4 | 0.4
COCCn1cc(-c2cn3ncc(C(=O)Nc4cc(NC(=O)C5(CN6CCC[C@@H]6C)CC5)cnc4C)c3s2)cn1 [Example 452, (S)-2-(1-(2-methoxyethyl)-1H-pyrazol-4-yl)-N-(2-methyl-5-(1-((2-methylpyrrolidin-1-yl)methyl)cyclopropanecarboxamido)pyridin-3-yl)pyrazolo[5,1-b]thiazole-7-carboxamide] | 376 | 12.1
Cc1ncc(NC(=O)CN2CC(C)(C)C2)cc1NC(=O)c1cnn2cc(-c3cnn(CCS(C)(=O)=O)c3)sc12 [Example 435, N-(5-(2-(3,3-Dimethylazetidin-1-yl)acetamido)-2-methylpyridin-3-yl)-2-(1-(2-(methylsulfonyl)ethyl)-1H-pyrazol-4-yl)pyrazolo[5,1-b]thiazole-7-carboxamide] | 6.8 | 0.6
Cc1ncc(NC(=O)NCCN2CCCC2(C)C)cc1NC(=O)c1cnn2cc(-c3cnn(C)c3)sc12 [Example 38, N-(5-(3-(2-(2,2-dimethylpyrrolidin-1-yl)ethyl)ureido)-2-methyl-pyridin-3-yl)-2-(1-methyl-1H-pyrazol-4-yl)pyrazolo[5,1-b]thiazole-7-carboxamide] | 33.5 | 1.8
Cc1ncc(NC(=O)C[C@H]2CCN(C(C)C)C2)cc1NC(=O)c1cnn2cc(-c3cnn(C)c3)sc12 [Example 465, (R)—N-(5-(2-(1-isopropylpyrrolidin-3-yl)acetamido)-2-methylpyridin-3-yl)-2-(1-methyl-1H-pyrazol-4-yl)pyrazolo[5,1-b]thiazole-7-carboxamide] | 73.9 | 3
Cc1ncc(NC(=O)CN2C[C@@H](C)O[C@H](C)C2)cc1NC(=O)c1cnn2cc(-c3cnn(C)c3C)sc12 (relative stereo) [Example 433, 2-(1,5-Dimethyl-1H-pyrazol-4-yl)-N-(5-(2-(trans-2,6-dimethylmorpholino)acetamido)-2-methylpyridin-3-yl)pyrazolo[5,1-b]thiazole-7-carboxamide] | 4 | 0.5
Cc1ncc(NC(=O)CN2CCCCCC2)cc1NC(=O)c1cnn2cc(-c3cnn4c3OCCC4)sc12 [Example 420, N-(5-(2-(azepan-1-yl)acetamido)-2-methylpyridin-3-yl)-2-(6,7-dihydro-5H-pyrazolo[5,1-b][1,3]oxazin-3-yl)pyrazolo[5,1-b]thiazole-7-carboxamide] | 2.1 | 0.2
COC1(C)CN(CC(=O)Nc2cnc(C)c(NC(=O)c3cnn4cc(-c5cn(C)nc5C)sc34)c2)C1 [Example 442, 2-(1,3-Dimethyl-1H-pyrazol-4-yl)-N-(5-(2-(3-methoxy-3-methylazetidin-1-yl)acetamido)-2-methylpyridin-3-yl)pyrazolo[5,1-b]thiazole-7-carboxamide] | 3.1 | 0.3
Cc1ncc(NC(=O)CN2CC(C)(C)C2)cc1NC(=O)c1cnn2cc(-c3cnc4n3CCOC4)sc12 [Example 415, 2-(5,6-dihydro-8H-imidazo[2,1-c][1,4]oxazin-3-yl)-N-(5-(2-(3,3-dimethylazetidin-1-yl)acetamido)-2-methylpyridin-3-yl)pyrazolo[5,1-b]thiazole-7-carboxamide] | 6.6 | 0.5
Cc1ncc(NC(=O)CN2C[C@@H](C)O[C@H](C)C2)cc1NC(=O)c1cnn2cc(-c3cn(C)nc3C)sc12 [Example 431] | 3.5 | 0.5
Cc1ncc(NC(=O)CN2CC(C)(C)C2)cc1NC(=O)c1cnn2cc(-c3cnn(C)c3C)sc12 [Example 434, 2-(1,5-Dimethyl-1H-pyrazol-4-yl)-N-(5-(2-(3,3-dimethylazetidin-1-yl)acetamido)-2-methylpyridin-3-yl)pyrazolo[5,1-b]thiazole-7-carboxamide] | 2.2 | 0.2
Cc1ncc(NC(=O)CN2CCCC[C@@H]2C)cc1NC(=O)c1cnn2cc(-c3cnn(CCO)c3)sc12 [Example 34, (S)-2-(1-(2-hydroxyethyl)-1H-pyrazol-4-yl)-N-(2-methyl-5-(2-(2-methyl-piperidin-1-yl)acetamido)pyridin-3-yl)pyrazolo[5,1-b]thiazole-7-carboxamide] | 13.4 | 1.7
Cc1ncc(NC(=O)CNCC(C)C)cc1NC(=O)c1cnn2cc(-c3cnn4c3OCCC4)sc12 [Example 414, 2-(6,7-dihydro-5H-pyrazolo[5,1-b][1,3]oxazin-3-yl)-N-(5-(2-(isobutylamino)acetamido)-2-methylpyridin-3-yl)pyrazolo[5,1-b]thiazole-7-carboxamide] | 3.3 | 0.4
Cc1ncc(NC(=O)CC2CN(C)C2)cc1NC(=O)c1cnn2cc(-c3cnn4c3CCC4)sc12 [Example 468, 2-(5,6-dihydro-4H-pyrrolo[1,2-b]pyrazol-3-yl)-N-(2-methyl-5-(2-(1-methylazetidin-3-yl)acetamido)pyridin-3-yl)pyrazolo[5,1-b]thiazole-7-carboxamide] | 149 | 2.1
Cc1ncc(NC(=O)CN2CCC[C@@H]2C)cc1NC(=O)c1cnn2cc(-c3cnn4c3OCCC4)sc12 [Example 413, (S)-2-(6,7-dihydro-5H-pyrazolo[5,1-b][1,3]oxazin-3-yl)-N-(2-methyl-5-(2-(2-methylpyrrolidin-1-yl)acetamido)pyridin-3-yl)pyrazolo[5,1-b]thiazole-7-carboxamide] | 2.9 | 0.3
